We go through three molecules from ChEMBL document CHEMBL5154917 (J Med Chem, 2022).

As usually defined, the IC50 is the concentration at which inhibition is half-maximal. One may read the bioavailability as dose-corrected exposure relative to a reference, in per cent. The term Cmax denotes the highest concentration seen after dosing.

The source made the active and inactive calls. The rule behind the calls is not given here.

The subject of series [1] is MKN-1. The experiment in a line: Antiproliferative activity against human MKN-1 cells assessed as cell growth inhibition incubated for 72 hrs by CCK-8 assay. As to conditions: MKN-1, 72 h. (In general: Formazan colour is commonly taken as a measure of viable cells.)
In a further series the test system is HT-29. The series is described as follows: Antiproliferative activity against human HT-29 cells assessed as cell growth inhibition incubated for 72 hrs by CCK-8 assay. As to conditions: HT-29, 72 h.
Series [2] in a line: Toxicity in CB17-SCID mouse xenografted with human MKN-1 cells assessed as mortality at 25 mg/kg, ip qd for 18 consecutive days. As to conditions: in vivo, 432 h, time 18 day. In kind it is organism-based. (In general: A xenograft is tissue or cells of one species grown in another, often human tumour cells in immunodeficient mice.)
For series [3], the target named is T1, Serine/threonine-protein kinase RIO1 (Homo sapiens) (UniProt Q9BRS2).
T1 sequence (whole entry): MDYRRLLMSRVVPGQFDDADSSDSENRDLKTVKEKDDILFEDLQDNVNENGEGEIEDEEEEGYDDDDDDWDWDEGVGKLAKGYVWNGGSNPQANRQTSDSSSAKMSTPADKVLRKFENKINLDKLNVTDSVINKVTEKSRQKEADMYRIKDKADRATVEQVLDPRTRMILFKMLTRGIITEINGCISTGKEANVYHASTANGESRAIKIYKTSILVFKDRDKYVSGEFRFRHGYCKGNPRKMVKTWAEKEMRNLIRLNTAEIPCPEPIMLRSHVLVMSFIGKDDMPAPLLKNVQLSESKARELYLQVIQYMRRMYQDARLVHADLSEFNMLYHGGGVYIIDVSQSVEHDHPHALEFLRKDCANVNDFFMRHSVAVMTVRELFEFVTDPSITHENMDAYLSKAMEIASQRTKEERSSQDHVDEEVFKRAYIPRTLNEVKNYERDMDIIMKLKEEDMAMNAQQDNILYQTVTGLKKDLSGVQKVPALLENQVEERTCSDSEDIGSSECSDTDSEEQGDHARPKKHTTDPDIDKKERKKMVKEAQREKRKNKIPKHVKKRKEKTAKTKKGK
The experiment in a line: Binding affinity to wild-type human full length RIOK1 (M1 to K568 residues) expressed in bacterial expression system assessed as residual activity at 1 uM by KINOMEscan assay relative to control.

The target in series [4] is T2, Serine/threonine-protein kinase RIO3 (Homo sapiens) (UniProt O14730).
T2 sequence (whole entry): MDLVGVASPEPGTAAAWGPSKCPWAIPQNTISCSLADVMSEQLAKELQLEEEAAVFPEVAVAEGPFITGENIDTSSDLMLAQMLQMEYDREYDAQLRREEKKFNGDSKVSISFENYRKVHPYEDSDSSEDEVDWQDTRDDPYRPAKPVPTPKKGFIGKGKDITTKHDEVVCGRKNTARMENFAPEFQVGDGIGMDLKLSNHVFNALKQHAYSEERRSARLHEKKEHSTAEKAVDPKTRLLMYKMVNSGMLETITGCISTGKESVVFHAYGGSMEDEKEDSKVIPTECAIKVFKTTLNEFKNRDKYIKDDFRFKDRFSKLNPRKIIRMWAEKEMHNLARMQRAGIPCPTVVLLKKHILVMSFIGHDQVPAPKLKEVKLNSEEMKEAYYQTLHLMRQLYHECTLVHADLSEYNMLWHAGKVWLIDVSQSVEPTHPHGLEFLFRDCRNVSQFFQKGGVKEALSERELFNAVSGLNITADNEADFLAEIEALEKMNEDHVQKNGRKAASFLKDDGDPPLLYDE
The experiment in a line: Binding affinity to wild-type human full length RIOK3 (M1 to E519 residues) expressed in bacterial expression system assessed as residual activity at 1 uM by KINOMEscan assay relative to control.

The nature of series [5]: Oral bioavailability in Sprague-Dawley rat. As to conditions: in vivo. In kind it is ADME, organism-based.
Series [6] can be described thus: Cmax in Sprague-Dawley rat administered orally. In kind it is ADME. The conditions noted are these: in vivo, po. Further details: route po.
A short description of series [7]: Solubility of compound in organic solvents. In kind it is physicochemical.
The species entered for series [8] is Homo sapiens. The series is described as follows: Binding affinity to human partial length FLT3 ITD F691L mutant expressed in mammalian expression system assessed as residual activity at 1 uM by KINOMEscan assay relative to control.
Series [9] has as its system T3, Receptor-type tyrosine-protein kinase FLT3 (Homo sapiens), P36888 [D835V].
T3 sequence (whole entry): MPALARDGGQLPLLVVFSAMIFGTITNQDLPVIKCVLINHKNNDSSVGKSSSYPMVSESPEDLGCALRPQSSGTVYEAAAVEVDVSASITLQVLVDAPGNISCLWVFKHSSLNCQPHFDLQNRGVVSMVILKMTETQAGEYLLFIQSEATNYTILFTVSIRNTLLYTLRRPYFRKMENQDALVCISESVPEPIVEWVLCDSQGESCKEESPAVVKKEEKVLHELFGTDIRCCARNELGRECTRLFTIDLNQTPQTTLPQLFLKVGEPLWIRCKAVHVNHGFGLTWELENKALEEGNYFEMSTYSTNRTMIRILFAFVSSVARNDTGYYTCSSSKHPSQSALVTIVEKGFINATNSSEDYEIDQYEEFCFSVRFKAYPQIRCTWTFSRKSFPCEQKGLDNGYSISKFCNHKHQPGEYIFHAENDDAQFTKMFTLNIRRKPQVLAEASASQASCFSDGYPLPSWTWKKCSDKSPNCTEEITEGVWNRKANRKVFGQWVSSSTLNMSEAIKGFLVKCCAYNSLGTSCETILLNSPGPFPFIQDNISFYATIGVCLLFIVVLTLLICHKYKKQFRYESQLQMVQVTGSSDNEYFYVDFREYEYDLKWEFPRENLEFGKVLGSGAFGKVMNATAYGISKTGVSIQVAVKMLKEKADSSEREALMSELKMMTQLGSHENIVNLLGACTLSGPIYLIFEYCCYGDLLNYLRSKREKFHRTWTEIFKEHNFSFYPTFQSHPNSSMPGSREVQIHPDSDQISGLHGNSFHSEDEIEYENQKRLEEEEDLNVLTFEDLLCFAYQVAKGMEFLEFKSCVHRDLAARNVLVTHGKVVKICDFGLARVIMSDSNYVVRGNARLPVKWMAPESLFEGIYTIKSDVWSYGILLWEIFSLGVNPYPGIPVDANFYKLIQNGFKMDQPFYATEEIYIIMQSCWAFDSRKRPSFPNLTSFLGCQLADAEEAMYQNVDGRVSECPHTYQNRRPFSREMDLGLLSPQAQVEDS
The experiment in a line: Binding affinity to human partial length FLT3 D835V mutant (V592 to Y969 residues) expressed in mammalian expression system assessed as residual activity at 1 uM by KINOMEscan assay relative to control.

Series [10] in a line: Aqueous solubility of the compound. As to conditions: buffer. It is filed as physicochemical.
The nature of series [11]: Toxicity in CB17-SCID mouse xenografted with human MKN-1 cells assessed as side effects at 25 mg/kg, ip qd for 18 consecutive days. In kind it is organism-based. As to conditions: in vivo, 432 h, time 18 day.
Series [12] concerns MKN-1. The series is described as follows: Antitumor activity against human MKN-1 cells xenografted in CB17-SCID mouse assessed as tumor growth inhibition at 25 mg/kg, ip qd for 18 consecutive days and measured once every 2 days relative to control. In kind it is functional. As to conditions: MKN-1, 432 h, time 18 day, read-out: TGI.
Series [13] is filed under the species Homo sapiens. The experiment in a line: Binding affinity to human partial length FLT3 ITD D835V mutant expressed in mammalian expression system assessed as residual activity at 1 uM by KINOMEscan assay relative to control.
In series [14] the target is T1, Serine/threonine-protein kinase RIO1 (Homo sapiens). The series is described as follows: Binding affinity to RIOK1 in human MKN-1 cells assessed as negative shift in melting temperature at 5 uM incubated for 3 hrs followed by heat treatment at 52 to 62 degC for 3 mins by CETSA. In kind it is cell-based. As to conditions: time 183.0 min.
Series [15] concerns the target T2, Serine/threonine-protein kinase RIO3 (Homo sapiens). The series is described as follows: Binding affinity to RIOK3 in human MKN-1 cells assessed as negative shift in melting temperature at 5 uM incubated for 3 hrs followed by heat treatment at 52 to 62 degC for 3 mins by CETSA. As to conditions: time 183.0 min. It is filed as cell-based.

Regarding `COc1ccc(-c2ccc3[nH]c(=O)c4nnn(-c5ccccc5)c4c3c2)cn1`, the IC50 with MKN-1 [1] and in the series on HT-29 was over 8 µM in each case.

On to `Cc1ccnc(NC(=O)Cc2ccc3ccccc3c2)c1`, for which the IC50 with MKN-1 [1] and in the series on HT-29 was over 8 µM in each case.

In the case of `COc1ccc(-c2ccc3[nH]c(=O)c4nnn(-c5ccc(N6CCNCC6)c(C(F)(F)F)c5)c4c3c2)cn1`, the Activity entry in [2] was “Non-Toxic”; in series [3], 100%; in [4] it was 87%; in the series listed under Homo sapiens [8], 3.6%; in [9] it was 28%; in [11] it was “Non-Toxic”. The Activity in the series listed under Homo sapiens [13] was 4%. For the same molecule, the IC50 in the series on MKN-1 [1] came out at 0.61 µM; with HT-29, 0.38 µM. Besides, in series [5], the bioavailability is 3.06%. Also, in [6], the concentration peaked (Cmax) at 13 ng/mL. Moreover, the solubility entry in [7] and in series [10] was “Insoluble” throughout. For the same molecule, the inhibition in vivo at 25 mg/kg in the series on MKN-1 [12] turned out to be 30.9%. Moreover, the outcome in series [14] and in series [15] was Active.
